Test results taken from patent publication US8835447B2, “Method for treating androgen receptor positive cancers” (priority 2009, dated 2014).

Key:
CWR22R cells = test: Cell cycle distribution by propidium iodide staining; type: cell-based, human; details: propidium iodide FACS
Method: Analysis of cell cycle distribution was based on staining of DNA content by propidium iodide. 10^5 cells were removed from culture dishes using trypsin, washed with PBS and resuspended in 300 μl 3% BSA in PBS, followed by addition of […] 70% ethanol. Cells were kept at −20° C. for several hours and then stained with 10 μg/ml propidium iodide in the presence of 30 μg/ml RNase A for 2 hrs at 37° C. DNA content was assessed using a FACS Calibur instrument and CellQuest software (Becton Dickinson, Franklin Lakes, N.J.).
To test this possibility, we assessed the cell cycle distribution of CWR22R cells treated with both categories of compounds. […] Therefore, different subsets of compounds inhibiting AR-dependent transcription in androgen-independent PCa cells cause either growth arrest or apoptosis in these cells. Whether a compound causes growth arrest or apoptosis is not determined by the potency of the compound as an inhibitor of AR-dependent transcription (i.e., FIG. 2B).

[1] = tested on: HT1080, HeLa and DU145 cells; test: Colony formation assay, non-PCa and AR-negative PCa cells; type: cell-based, human; details: 10 μM, 7 days
Method: Cell Colony Assay: Cells were plated in 24-well plates at a density allowing 6-7 days of exponential growth before confluency. Medium and compound was replaced every 48 hours to minimize the effect of potential compound instability. After 7 days of incubation in the presence of compound, cells were fixed and stained with methylene blue, followed by extraction of the stain with 1% SDS and spectrophotometry at 650 nm. Each assay was run in triplicate and the difference between control and compound-treated wells was determined using Student's t-test.
This Example provides a description of the effect of the selected compounds on the growth of PCa cells. To test the toxicity of the identified AR inhibitors towards cells of different origins, we performed colony formation assays using a single dose of each compound (10 μM) on several PCa (LNCaP, C4-2, CWR22R and DU145) and two non-PCa (HT1080 and HeLa) cell lines (FIG. 2A). […] These compounds were not weaker inhibitors of AR transcriptional activity in CWR22R or C4-2 cells than compounds that inhibited growth of the cells.

With `CCCn1c2ccccc2c2cc(C(C)=O)ccc21` [c52] the “cells with sub-G1 DNA content (apoptotic)” value (CWR22R cells) was “appearance of cells with sub-G1 DNA content” and the “growth of / toxicity towards non-PCa cells or AR-negative PCa cells (DU145)” value [1] was “no toxicity”.
